Earlier results as cited in patent US10058529B2, “Nutraceutical composition for PDE4 inhibition, enhanced dopamine metabolism and long term potentiation” (priority 2013, dated 2018).
One block for each compound: values may come before it.

Assays:
[1] = test system: phosphodiesterase enzymes (PDE 1 through 5)
PDE4 = conditions: reference 38
[2] = low doses
[3] = co-administered piperine
acetylcholine = conditions: in vivo

inhibition of phosphodiesterase enzymes (PDE 1 through 5) [1]: can inhibit
Structure (SMILES): O=c1cc(-c2ccc(O)c(O)c2)oc2cc(O)cc(O)c12 [Luteolin, luteolin]

Structure (SMILES): COc1ccc([C@@]23C=CC(=O)C[C@@H]2N(C)CC3)cc1OC [mesembrenone]
PDE4 inhibition (PDE4): significantly inhibit

Structure (SMILES): COc1ccc(C2CNC(=O)C2)cc1OC1CCCC1 (centres unmarked) [rolipram]
side effect [2]: emesis (vomiting) at low doses

bioavailability of resveratrol [3]: enhance the bioavailability
Structure (SMILES): O=C(/C=C/C=C/c1ccc2c(c1)OCO2)N1CCCCC1 [Piperine, piperine]

Structure (SMILES): CC(=O)O[C@H](CC(=O)[O-])C[N+](C)(C)C [Acetyl-L-carnitine, acetyl-L-carnitine]
levels of acetylcholine in the brain (acetylcholine): increase
